Reference: patent EP4417607A1, “HETEROCYCLIC COMPOUND AS SOS1 INHIBITOR AND USES THEREOF” (Nanjing Zaiming Pharmaceutical Co., Ltd., priority 2021, dated 2023)

Columns and labels:
[1] = system: H358 cells; experiment: H358 cell proliferation inhibition (CellTiter-Glo luminescent cell viability assay); format: cell-based; conditions: 7 days
Procedure: The effect of the compounds of the present invention on H358 cell proliferation was assessed by CellTiter-Glo luminescent cell viability assay kit method.
H358 cells (ATCC, CRL-5807) were cultured in RPMI1640 (Hyclone, SH30256.01) complete medium containing 10% FBS (Gibco, 10100147) and 100 U/mL penicillin-streptomycin mixed solution (Gibco, 15140163). When the cells grew to 80-90%, the cells were digested, pipetted, and seeded in a 96-well plate (Corning, 4515) at 3000 cells/well (180 µL RPMI1640 complete medium), and then the 96-well plate was incubated overnight in an incubator at 37 °C with 5% CO2.
After incubation overnight, 20 µL of a diluted test compound was added to each well using a multi-channel pipette, and the 96-well plate was placed in an incubator at 37 °C with 5% CO2 for further culture. After 7 days, 100 µL of the supernatant was pipetted and discarded. 50 µL of CellTiter-Glo® 3D Cell Viability Assay liquid was added to each well. The plate was shaken at room temperature at 450 rpm for 30 min. After the cells were completely lysed, "Luminescence" on the microplate reader was selected for plate reading. In this experiment, the cell-free group (replaced with 1640 medium) was used as the 100% inhibition group, and the compound-free group in which the cell was added was used as the 0% inhibition group.
The inhibition percentage of H358 cell proliferation by the compounds of the present invention could be calculated by the following formula: [formula]
(§1) IC50 values of the compounds were calculated from 8 concentration points using XLfit (ID Business Solutions Ltd., UK) software by the following formula: Y = Bottom + (Top−Bottom)/(1+10^(∧)((logIC50−X)×slopefactor)) [formula]
Y is the inhibition percentage, X is the logarithmic value of the concentration of the test compound, Bottom is the minimum inhibition percentage, Top is the maximum inhibition percentage, and slope factor is the slope coefficient of the curve.

[2] = system: p-ERK pathway in H358 cells; experiment: p-ERK pathway inhibition in H358 cells (Advanced phospho-ERK (Thr202/Tyr204) cellular kit, HTRF); format: cell-based
Procedure: The effect of the compounds of the present invention on H358 cell p-ERK pathway was assessed by Advanced phospho-ERK (Thr202/Tyr204) cellular kit method.
The experimental procedures were summarized as follows: H358 cells (ATCC, CRL-5807) were cultured in RPMI1640 (ThermoFisher, A1049101) complete medium containing 10% FBS (Gibco, 10100147) and 100 U/mL penicillin-streptomycin mixed solution (Gibco, 15140163). When the coverage of the cells in the culture vessel reached 80-90%, the cells were pipetted and seeded in a 96-well plate (Corning, 3599) at 50000 cells/well (90 µL RPMI1640 complete medium), and the plate was left to stand for 5 min, cultured in an incubator at 37 °C with 5% CO2 for 6 h, replaced with a serum-free RPMI1640, and starved overnight.
After incubation overnight, 10 µL of a diluted test compound was added to each well using a multi-channel pipette, and the 96-well plate was cultured in an incubator at 37 °C with 5% CO2 for 1 h. The supernatant was poured. The cells were washed once with PBS. 50 µL of a lysis buffer (Advanced phospho-ERK (Thr202/Tyr204) cellular kit, 64AERPEH) was added to each well. The plate was shaken at room temperature at 450 rpm for 1 h. After the cells were completely lysed, 16 µL of the supernatant was added to a 384-well plate (PE, 6007299), mixed energy donor Eu and energy acceptor D2 (D2/Eu = 1:1) were added, and the plate was incubated at room temperature for 4 h. HTRF on the microplate reader was selected for plate reading, Ratio = Signal 665 nm/Signal 620 nm × 10^4. In this experiment, the cell-free group (replaced with 1640 medium) was used as the 100% inhibition group, and the compound-free group in which the cell was added was used as the 0% inhibition group.
The inhibition percentage of H358 cell p-ERK pathway by the compounds of the present invention could be calculated by the following formula: [formula]
as §1
Y is the inhibition percentage, X is the logarithmic value of the concentration of the test compound, Bottom is the minimum inhibition percentage, Top is the maximum inhibition percentage, and slope factor is the slope coefficient of the curve. The default fitted curve was used to fit the slope of the S-shaped curve to determine the IC50 value. Table 2. Results of p-ERK inhibition test by the compounds of the present invention

[3] = Homo sapiens, NCI-H358, 1 h compound incubation

Row | IC50 ([1]; Homo sapiens, NCI-H358, 168 h) | IC50 [2, 3] | IC50 [1] | IC50 ([2]; 1 h compound incubation) | Molecule
1 | 0.0764 µM | 0.0613 µM | – | – | Cc1nc(N[C@H](C)c2cccc(C#N)c2C)c2cn(N3CCOCC3)c(=O)c(N3CCOCC3)c2n1 [Example 108, (R)-2-methyl-3-(1-((2-methyl-6,8-dimorpholine-7-oxo-6,7-dihydropyrido[4,3-d]pyrimidin-4-yl)amino)ethyl)benzonitrile]
2 | 0.0696 µM | 0.0525 µM | – | – | COc1c(=O)n(C2(C)CCN(C(C)=S)C2)cc2c(N[C@H](C)c3cccc(C(F)F)c3F)nc(C)nc12 (some centres unmarked) [Example 19]
3 | 0.0118 µM | 0.0663 µM | – | – | Cc1nc(N[C@H](C)c2cccc(C(F)F)c2F)c2cn(C3(CF)CC3)c(=O)c(N3CCN4CCC[C@@H]4C3)c2n1 (stereo in doubt) [Example 97, 4-(((R)-1-(3-(difluoromethyl)-2-fluorophenyl)ethyl)amino)-6-(1-(fluoromethyl)cyclopropyl)-8-((R)-hexahydropyrrolo[1,2-a]pyrazin-2(1H)-yl)-2-methylpyrido[4,3-d]pyrimidine-7(6H)-one]
4 | 0.0731 µM | 0.0675 µM | – | – | Cc1nc(N[C@H](C)c2cccc(C(F)F)c2F)c2cn(C3(CF)CC3)c(=O)c(N3CCOC[C@@H]3C(C)C)c2n1 [Example 57, 4-(((R)-1-(3-(difluoromethyl)-2-fluorophenyl)ethyl)amino)-6-(1-(fluoromethyl)cyclopropyl)-8-((S)-3-isopropylmorpholino)-2-methylpyrido[4,3-d]pyrimidine-7(6H)-one]
5 | – | – | 0.105 µM | 0.04 µM | (R)-4-((1-(3-(difluoromethyl)-2-fluorophenyl)ethyl)amino)-6-(1-(fluoromethyl)cyclopropyl)-8-(2-hydroxyprop-2-yl)-2-methylpyrido[4,3-d]pyrimidine-7(6H)-one [Example 144]
6 | 0.079 µM | 0.0768 µM | – | – | Cc1nc(N[C@H](C)c2cccc(C(F)F)c2F)c2cn(C3(CF)CC3)c(=O)c(S(C)(=O)=O)c2n1 [Example 66, (R)-4-((1-(3-(difluoromethyl)-2-fluorophenyl)ethyl)amino)-6-(1-(fluoromethyl)cyclopropyl)-2-methyl-8-(methylsulfonyl)pyrido[4,3-d]pyrimidine-7(6H)-one]
7 | 0.148 µM | 0.133 µM | – | – | Cc1nc(N[C@H](C)c2cccc(C#N)c2C)c2cn(N3CCOCC3)c(=O)c(OC3(C)CC3)c2n1 [Example 91, (R)-2-methyl-3-(1-((2-methyl-8-(1-methylcyclopropoxy)-6-morpholinyl-7-oxo-6,7-dihydropyrido[4,3-d]pyrimidin-4-yl)amino)ethyl)benzonitrile]
8 | 0.0265 µM | 0.0414 µM | – | – | Cc1nc(N[C@H](C)c2cccc(C(F)F)c2F)c2cn(C3(CF)CC3)c(=O)c(N3CCOCC3(C)C)c2n1 [Example 52, (R)-4-((1-(3-(difluoromethyl)-2-fluorophenyl)ethyl)amino)-8-(3,3-dimethylmorpholine) -6-(1-(fluoromethyl)cyclopropyl)-2-methylpyrido[4,3-d]pyrimidine-7(6H)-one]
9 | 0.0156 µM | 0.07 µM | – | – | [2H]C([2H])([2H])[C@@H](Nc1nc(C)nc2c(N3CCOC[C@@H]3C)c(=O)n(C3(CF)CC3)cc12)c1cccc(C(F)F)c1F [Example 113, 4-(((R)-1-(3-(difluoromethyl)-2-fluorophenyl)ethyl-2,2,2-d3)amino)-6-(1-(fluoromethyl)cyclopropyl)-2-methyl-8-((S)-3-methylmorpholine)pyrido[4,3-d]pyrimidine-7(6H)-one]
10 | 0.154 µM | – | – | – | Cc1nc(N[C@H](C)c2cccc(C(F)F)c2F)c2cn(C3(CF)CC3)c(=O)c(OCC3CC3)c2n1 [Example 35, (R)-8-(cyclopropylmethoxy)-4-((1-(3-(difluoromethyl)-2-fluorophenyl)ethyl)amino)-6-(1-(fluoromethyl)cyclopropyl)-2-methylpyrido[4,3-d]pyrimidine-7(6H)-one]
11 | 0.0747 µM | – | – | – | COc1c(=O)n(C2(C)CCN(C(C)=O)C2)cc2c(N[C@H](C)c3cccc(C(F)F)c3F)nc(C)nc12 (stereo partly drawn) [Example 7, 6-(1-acetyl-3-methylpyrrolidin-3-yl)-4-(((R)-1-(3-(difluoromethyl)-2-fluorophenyl)ethyl)amino)-8-methoxy-2-methylpyrido[4,3-d]pyrimidine-7(6H)-one]
12 | 0.0848 µM | – | – | – | Cc1nc(N[C@H](C)c2cccc(C(F)F)c2F)c2cn(C3(CF)CC3)c(=O)c(NC(=O)c3ccccn3)c2n1 [Example 157]
13 | 0.136 µM | – | – | – | Cc1nc(N[C@H](C)c2cccc(C(F)F)c2F)c2cn(N3CCOCC3)c(=O)c(Oc3ccnc(C#N)c3)c2n1 [Example 118, (R)-4-((4-((1-(3-(difluoromethyl)-2-fluorophenyl)ethyl)amino)-2-methyl-6-morpholino-7-oxo-6,7-dihydropyrido[4,3-d]pyrimidin-8-yl)oxy)pyridinecarbonitrile]
14 | 0.117 µM | – | – | – | Cc1nc(N[C@H](C)c2cccc(C(F)F)c2F)c2cn(C3(CF)CC3)c(=O)c(N3CCC4(COC4)C3)c2n1 [Example 154]
15 | 0.162 µM | – | – | – | Cc1nc(N[C@H](C)c2cccc(C(F)F)c2F)c2cn(C3(CF)CC3)c(=O)c(N)c2n1 [Example 59, (R)-8-amino-4-((1-(3-(difluoromethyl)-2-fluorophenyl)ethyl)amino)-6-(1-(fluoromethyl)cyclopropyl)-2-methylpyrido[4,3-d]pyrimidine-7(6H)-one]
16 | 0.118 µM | – | – | – | Cc1nc(N[C@H](C)c2cccc(C#N)c2C)c2cn(C3(CF)CC3)c(=O)c(-c3ccc(C#N)nc3)c2n1 [Example 67, (R)-5-(4-((1-(3-cyano-2-methylphenyl)ethyl)amino)-6-(1-(fluoromethyl)cyclopropyl)-2-methyl-7-oxo-6,7-dihydropyrido[4,3-d]pyrimidin-8-yl)pyridinecarbonitrile]
17 | 0.0407 µM | – | – | – | Cc1nc(N[C@H](C)c2cccc(C#N)c2C)c2cn(N3CCOCC3)c(=O)c(-c3ccc(C#N)nc3)c2n1 [Example 64, (R)-5-(4-((1-(3-cyano-2-methylphenyl)ethyl)amino)-2-methyl-6-morpholine-7-oxo-6,7-dihydropyrido[4,3-d]pyrimidin-8-yl)pyridinecarbonitrile]
18 | 0.134 µM | – | – | – | Cc1nc(N[C@H](C)c2cccc(C#N)c2C)c2cn(N3CCOCC3)c(=O)c(-c3ccc(N4CCCC4)nc3)c2n1 [Example 89, (R)-2-methyl-3-(1-((2-methyl-6-morpholinyl-7-oxo-8-(6-(pyrrolidin-1-yl)pyridin-3-yl)-6,7-dihydropyrido[4,3-d]pyrimidin-4-yl)amino)ethyl)benzonitrile]
19 | 0.0614 µM | – | – | – | COc1c(=O)n(C2(CF)CC2)cc2c(N[C@H](C)c3cccc(C#N)c3C)nc(C)nc12 [Example 3, (R)-3-(1-((6-(1-(fluoromethyl)cyclopropyl)-8-methoxy-2-methyl-7-oxo-6,7-dihydropyrido[4,3-d]pyrimidin-4-yl)amino)ethyl)-2-methylbenzonitrile]

Row | Molecule | IC50 ([1]; Homo sapiens, NCI-H358, 168 h) | IC50 [2, 3] | IC50 [1] | IC50 ([2]; 1 h compound incubation)
20 | Cc1nc(N[C@H](C)c2cccc(C(F)F)c2F)c2cn(C3(CF)CC3)c(=O)c(OC(=O)N3CCN(C)CC3)c2n1 [Example 86, (R)-4-((1-(3-(difluoromethyl)-2-fluorophenyl)ethyl)amino)-6-(1-(fluoromethyl)cyclopropyl)-2-methyl-7-oxo-6,7-dihydropyrido[4,3-d]pyrimidin-8-yl-4-methylpiperazine-1-carboxylate] | 0.121 µM | – | – | –
